Values joined by “and” are separate entries in the source; they are usually repeats but may differ in a detail not shown here. Equal values may be shown once.
What was measured:
BAD KO SV40 MEF = test: Alamar Blue survival curves; format: cell-based, mouse; settings: for involvement of proapoptotic protein BAD in cell death: BAD KO SV40 MEF vs WT SV40 MEF; for IC50: BAD KO SV40 MEF, 72 h
Method: (§1) A Quantification of mitochondrial membrane depolarization in HepG2 cells after 24 h of incubation with complex 1 or 2, as determined by flow cytometry. B and C Quantification of PARP (Asp214) cleavage in HepG2 cells after 24 h of incubation with complex 1 (8 μM) or 2 (6 μM), as determined by flow cytometric analysis. MFI: Mean fluorescence intensity. D Survival curves of WT SV40 MEFs and BAD KO SV40 MEFs upon treatment with complexes 1 and 2 and 5-fluorouracil (5-FU, used as a positive control). The curves were obtained from at least three biological replicates carried out in duplicate using the Alamar Blue assay after 72 h of incubation. E DNA fragmentation (sub-G0/G1 cells) and cell cycle distribution (G0/G1, S and G2/M phases) of WT SV40 MEFs and BAD KO SV40 MEFs after 48 h of incubation with complexes 1 (10 μM) and 2 (10 μM) or 5-FU (40 μM). The vehicle (0.2% DMSO) was used as a negative control (CTL). The data are expressed as the mean ± S.E.M. of three biological replicates carried out in duplicate. *P < 0.05 compared to CTL by one-way analysis of variance (ANOVA) followed by Dunnett’s multiple comparisons test.
(§2) The Alamar Blue assay was used to measure cell viability, as previously described. Adherent cells were seeded in 96-well plates at a density of 7 × 10^3 cells per well, and suspended cells were seeded at 3 × 10^4 cells per well. Drugs were added to each well after overnight incubation for adherent cells or immediately after seeding for suspension cells, and incubation continued for an additional 72 h. […] Four hours (for cell lines) or 24 h (for primary cultures) before the end of incubation, 20 μL of resazurin (30 μM) (Sigma‒Aldrich Co. St. Louis, MO, USA) was added to each well. The absorbance at 570 and 600 nm was measured using a SpectraMax 190 microplate reader (Molecular Devices, Sunnyvale, CA, USA).

WT SV40 MEF = test: Alamar Blue survival curves; format: cell-based, mouse; settings: 72 h
Method: as §1, §2

HepG2 cells = test: qPCR array gene expression; format: cell-based, human; parameters: key to RQ MTOR / RQ GSTP1 / RQ TXN / RQ TXNRD1 / RQ CTSS / RQ TOP2B / RQ NFKB1 / RQ HDAC1 / RQ AURKC / RQ NTN3 / RQ HDAC6 / RQ TNKS: RQ by 2^-ΔΔCT, fold vs 0.2% DMSO calibrator (=1); key to RQ BCL2 / RQ BIRC5 / RQ ERBB2 / RQ ERBB3 / RQ IGF1R / RQ CTSD / RQ ESR1 / RQ CDC25A / RQ HIF1A / RQ CDK9 / RQ MDM2 / RQ TP53 / RQ KRAS / RQ HDAC11 / RQ HDAC8: fold change by 2^-ΔΔCT vs 0.2% DMSO calibrator (=1); settings: 12 h; 8 µM complex 1, 6 µM complex 2
Method: Total RNA was extracted using the RNeasy Plus Mini Kit (Qiagen; Hilden, Germany) following the manufacturer’s instructions. A NanoDrop® 1000 spectrophotometer (Thermo Fisher Scientific, Waltham, Massachusetts, USA) was used to quantify and assess the purity of the RNA. Reverse transcription was performed using the Superscript VILOTM enzyme (Invitrogen Corporation; Waltham, MA, USA), and a TaqMan® array human cancer drug target 96-well plate, fast (ID RPRWENH, Applied BiosystemsTM, Foster City, CA, USA) was used for the gene expression study by qPCR (ABI ViiA7, Applied Biosystems instrument). The cycle conditions were 2 min at 50 °C, 10 min at 95 °C, and 40 cycles of 15 s at 95 °C and 1 min at 60 °C. All the experiments were conducted under DNase/RNase-free conditions. The 2^-ΔΔCT method was used to calculate the relative quantification (RQ) of mRNA expression using Gene Expression SuiteTM Software (Applied BiosystemsTM). Cells treated with the negative control (0.2% DMSO) were used as a calibrator, and the RQs of the reference genes GAPDH, UBC and RPLP0 were used to normalize the responses.

F[P-](F)(F)(F)(F)F.O=c1cc[nH]c([S][Ru+])n1.c1ccc(-c2ccccn2)nc1.c1ccc(P(c2ccccc2)c2ccccc2)cc1.c1ccc(P(c2ccccc2)c2ccccc2)cc1 [Complex 1, trans-[Ru(2TU)(PPh3)2(bipy)]PF6]
involvement of proapoptotic protein BAD in cell death (BAD KO SV40 MEF): independent of the protein BAD | IC50 (BAD KO SV40 MEF): 4.6 µM | IC50 (WT SV40 MEF): 5.4 µM | RQ ABCC1 (HepG2 cells): 2.226 | RQ AKT1 (HepG2 cells): 0.775 | RQ AKT2 (HepG2 cells): 0.889 | RQ ATF2 (HepG2 cells): 1.702 | RQ AURKA (HepG2 cells): 0.691 | RQ AURKB (HepG2 cells): 0.759 | RQ AURKC (HepG2 cells): 1.565 | RQ BCL2 (HepG2 cells): 1.602 | RQ BIRC5 (HepG2 cells): 0.800 | RQ CDC25A (HepG2 cells): 2.454 | RQ CDK1 (HepG2 cells): 0.664 | RQ CDK2 (HepG2 cells): 0.777 | RQ CDK4 (HepG2 cells): 1.130 | RQ CDK5 (HepG2 cells): 0.572 | RQ CDK7 (HepG2 cells): 2.521 | RQ CDK8 (HepG2 cells): 2.592 | RQ CDK9 (HepG2 cells): 0.937 | RQ CTSB (HepG2 cells): 0.797 | RQ CTSD (HepG2 cells): 1.503 | RQ CTSL (HepG2 cells): 1.271 | RQ CTSS (HepG2 cells): 1.314 | RQ EGFR (HepG2 cells): 1.217 | RQ ERBB2 (HepG2 cells): 0.682 | RQ ERBB3 (HepG2 cells): 0.915 | RQ ESR1 (HepG2 cells): 0.564 | RQ ESR2 (HepG2 cells): 2.165 | RQ GRB2 (HepG2 cells): 1.501 | RQ GSTP1 (HepG2 cells): 0.499 and 0.49 | RQ HDAC1 (HepG2 cells): 0.833 | RQ HDAC2 (HepG2 cells): 1.190 | RQ HDAC3 (HepG2 cells): 0.989 | RQ HDAC4 (HepG2 cells): 0.764 | RQ HDAC6 (HepG2 cells): 0.564 | RQ HDAC7 (HepG2 cells): 1.008 | RQ HDAC8 (HepG2 cells): 0.970 | RQ HDAC11 (HepG2 cells): 1.729 | RQ HIF1A (HepG2 cells): 3.170 | RQ HRAS (HepG2 cells): 0.753 | RQ HSP90AA1 (HepG2 cells): 2.760 | RQ HSP90B1 (HepG2 cells): 3.676 | RQ IGF1R (HepG2 cells): 0.916 | RQ KRAS (HepG2 cells): 1.809 | RQ MDM2 (HepG2 cells): 1.685 | RQ MDM4 (HepG2 cells): 2.263 | RQ MTOR (HepG2 cells): 0.395 and 0.39 | RQ NFKB1 (HepG2 cells): 0.451 and 0.45 | RQ NRAS (HepG2 cells): 0.908 | RQ NTN3 (HepG2 cells): 5.849 | RQ PARP1 (HepG2 cells): 0.638 | RQ PARP4 (HepG2 cells): 0.801 | RQ PDGFRB (HepG2 cells): 0.964 | RQ PGR (HepG2 cells): 8.929 | RQ PIK3C2A (HepG2 cells): 0.855 | RQ PIK3C3 (HepG2 cells): 1.001 | RQ PIK3CA (HepG2 cells): 0.817 | RQ PLK1 (HepG2 cells): 0.520 | RQ PLK2 (HepG2 cells): 1.630 | RQ PLK3 (HepG2 cells): 2.378 | RQ PLK4 (HepG2 cells): 0.743 | RQ PRKCA (HepG2 cells): 1.667 | RQ PRKCB (HepG2 cells): 0.327 | RQ PRKCD (HepG2 cells): 0.661 | RQ PRKCE (HepG2 cells): 2.615 | RQ PTGS2 (HepG2 cells): 7.499 | RQ RHOA (HepG2 cells): 0.642 | RQ RHOB (HepG2 cells): 0.437 | RQ TERT (HepG2 cells): 0.604 | RQ TNKS (HepG2 cells): 3.189 | RQ TOP2A (HepG2 cells): 0.469 | RQ TOP2B (HepG2 cells): 0.499 | RQ TP53 (HepG2 cells): 1.021 | RQ TXN (HepG2 cells): 0.546 | RQ TXNRD1 (HepG2 cells): 1.341

Cc1cc(=O)nc([S][Ru+])[nH]1.F[P-](F)(F)(F)(F)F.c1ccc(-c2ccccn2)nc1.c1ccc(P(c2ccccc2)c2ccccc2)cc1.c1ccc(P(c2ccccc2)c2ccccc2)cc1 [Complex 2, trans-[Ru(6m2TU)(PPh3)2(bipy)]PF6]
involvement of proapoptotic protein BAD in cell death (BAD KO SV40 MEF): independent of the protein BAD | IC50 (BAD KO SV40 MEF): 4.1 µM | IC50 (WT SV40 MEF): 5.1 µM | RQ ABCC1 (HepG2 cells): 1.941 | RQ AKT1 (HepG2 cells): 1.087 | RQ AKT2 (HepG2 cells): 1.490 | RQ ATF2 (HepG2 cells): 2.672 | RQ AURKA (HepG2 cells): 1.172 | RQ AURKB (HepG2 cells): 1.242 | RQ AURKC (HepG2 cells): 2.011 | RQ BCL2 (HepG2 cells): 1.249 | RQ BIRC5 (HepG2 cells): 1.033 | RQ CDC25A (HepG2 cells): 6.141 | RQ CDK1 (HepG2 cells): 0.752 | RQ CDK2 (HepG2 cells): 1.120 | RQ CDK4 (HepG2 cells): 1.730 | RQ CDK5 (HepG2 cells): 1.104 | RQ CDK7 (HepG2 cells): 2.039 | RQ CDK8 (HepG2 cells): 3.664 | RQ CDK9 (HepG2 cells): 1.146 | RQ CTSB (HepG2 cells): 0.972 | RQ CTSD (HepG2 cells): 1.586 | RQ CTSL (HepG2 cells): 0.950 | RQ CTSS (HepG2 cells): 0.866 | RQ EGFR (HepG2 cells): 1.856 | RQ ERBB2 (HepG2 cells): 1.118 | RQ ERBB3 (HepG2 cells): 1.280 | RQ ESR1 (HepG2 cells): 0.968 | RQ ESR2 (HepG2 cells): 2.732 | RQ GRB2 (HepG2 cells): 2.255 | RQ GSTP1 (HepG2 cells): 0.276 and 0.27 | RQ HDAC1 (HepG2 cells): 16.128 | RQ HDAC2 (HepG2 cells): 2.118 | RQ HDAC3 (HepG2 cells): 3.639 | RQ HDAC4 (HepG2 cells): 0.456 | RQ HDAC6 (HepG2 cells): 1.088 | RQ HDAC7 (HepG2 cells): 2.228 | RQ HDAC8 (HepG2 cells): 1.517 | RQ HDAC11 (HepG2 cells): 3.379 | RQ HIF1A (HepG2 cells): 3.509 | RQ HRAS (HepG2 cells): 0.785 | RQ HSP90AA1 (HepG2 cells): 3.278 | RQ HSP90B1 (HepG2 cells): 2.205 | RQ IGF1R (HepG2 cells): 1.357 | RQ KRAS (HepG2 cells): 1.185 | RQ MDM2 (HepG2 cells): 0.982 | RQ MDM4 (HepG2 cells): 2.736 | RQ MTOR (HepG2 cells): 1.092 | RQ NFKB1 (HepG2 cells): 0.760 | RQ NRAS (HepG2 cells): 0.469 | RQ NTN3 (HepG2 cells): 0.712 | RQ PARP1 (HepG2 cells): 1.065 | RQ PARP4 (HepG2 cells): 2.503 | RQ PDGFRB (HepG2 cells): 1.004 | RQ PGR (HepG2 cells): 30.650 | RQ PIK3C2A (HepG2 cells): 0.839 | RQ PIK3C3 (HepG2 cells): 0.840 | RQ PIK3CA (HepG2 cells): 0.441 and 0.44 | RQ PLK1 (HepG2 cells): 0.509 | RQ PLK2 (HepG2 cells): 5.868 | RQ PLK3 (HepG2 cells): 2.039 | RQ PLK4 (HepG2 cells): 0.844 | RQ PRKCA (HepG2 cells): 1.337 | RQ PRKCB (HepG2 cells): 0.506 | RQ PRKCD (HepG2 cells): 0.340 | RQ PRKCE (HepG2 cells): 1.636 | RQ PTGS2 (HepG2 cells): 15.420 | RQ RHOA (HepG2 cells): 0.628 | RQ RHOB (HepG2 cells): 0.406 | RQ TERT (HepG2 cells): 1.051 | RQ TNKS (HepG2 cells): 2.369 | RQ TOP2A (HepG2 cells): 0.423 | RQ TOP2B (HepG2 cells): 0.235 | RQ TP53 (HepG2 cells): 1.658 | RQ TXN (HepG2 cells): 0.375 and 0.37 | RQ TXNRD1 (HepG2 cells): 0.35

From article PMC11148080, “Ru(II)-based complexes containing 2-thiouracil derivatives suppress liver cancer stem cells by targeting NF-κB and Akt/mTOR signaling” (Cell Death Discovery, 2024)
